Columns and labels:
[1] = target: Casein kinase I isoform delta (Homo sapiens, UniProt P48730); experiment: Selectivity interaction (Kinase panel (literature)) EUB0001199aCl CSNK1D; conditions: at 1 µM
[2] = target: T1, Cyclin-dependent kinase-like 2 (Homo sapiens) (UniProt Q92772); experiment: Selectivity interaction (KinomeScan (DiscoverX)) EUB0000229b CDKL2; conditions: at 10 µM
T1 sequence (whole entry): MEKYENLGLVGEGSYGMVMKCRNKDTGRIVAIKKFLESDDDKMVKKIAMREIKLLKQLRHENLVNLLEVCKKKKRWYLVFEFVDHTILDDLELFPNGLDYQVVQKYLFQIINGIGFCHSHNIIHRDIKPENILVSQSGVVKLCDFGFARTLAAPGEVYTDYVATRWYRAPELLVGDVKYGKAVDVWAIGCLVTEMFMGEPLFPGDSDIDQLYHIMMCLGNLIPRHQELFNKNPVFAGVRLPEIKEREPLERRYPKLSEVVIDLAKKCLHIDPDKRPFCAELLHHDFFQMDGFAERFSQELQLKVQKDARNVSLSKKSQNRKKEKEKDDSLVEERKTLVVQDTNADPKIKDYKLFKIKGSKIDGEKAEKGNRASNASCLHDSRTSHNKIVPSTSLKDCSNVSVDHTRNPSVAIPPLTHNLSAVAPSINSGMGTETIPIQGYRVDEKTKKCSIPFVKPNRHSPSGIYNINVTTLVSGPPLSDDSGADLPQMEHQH

[3] = target: Serine/threonine-protein kinase RIO2 (Homo sapiens) (UniProt Q9BVS4); experiment: Selectivity interaction (KinomeScan (DiscoverX)) EUB0000229b RIOK2; conditions: at 10 µM
[4] = tested on: Tyrosine-protein kinase ABL1 (Homo sapiens), P00519 [T315I]; experiment: Selectivity interaction (KinomeScan (DiscoverX)) EUB0000229b ABL1; conditions: at 1 µM
[5] = target: SWI/SNF-related matrix-associated actin-dependent regulator of chromatin subfamily A member 2 (Homo sapiens, UniProt P51531); experiment: Selectivity interaction (Human bromodomain panel (DSF assay)) EUB0000233b SMARCA2
[6] = target: Serine/threonine-protein kinase PAK 2 (Homo sapiens) (UniProt Q13177); experiment: Selectivity interaction (Kinase panel (Eurofins)) EUB0001564a PAK2; conditions: at 1 µM
[7] = target: Tyrosine-protein kinase ABL1 (Homo sapiens, UniProt P00519); experiment: Selectivity interaction (Kinase panel (DSF assay)) EUB0001559a ABL1
[8] = target: Fibroblast growth factor receptor 1 (Homo sapiens, UniProt P11362); experiment: Selectivity interaction (KinomeScan (DiscoverX)) EUB0000092b FGFR1; conditions: at 10 µM
[9] = target: STE20/SPS1-related proline-alanine-rich protein kinase (Homo sapiens) (UniProt Q9UEW8); experiment: Selectivity interaction (KinomeScan (DiscoverX)) EUB0000045b STK39
[10] = target: T2, cAMP-dependent protein kinase catalytic subunit PRKX (Homo sapiens) (UniProt P51817); experiment: Selectivity interaction (KinomeScan (DiscoverX)) EUB0000618a PRKX; conditions: at 10 µM
T2 sequence (whole entry): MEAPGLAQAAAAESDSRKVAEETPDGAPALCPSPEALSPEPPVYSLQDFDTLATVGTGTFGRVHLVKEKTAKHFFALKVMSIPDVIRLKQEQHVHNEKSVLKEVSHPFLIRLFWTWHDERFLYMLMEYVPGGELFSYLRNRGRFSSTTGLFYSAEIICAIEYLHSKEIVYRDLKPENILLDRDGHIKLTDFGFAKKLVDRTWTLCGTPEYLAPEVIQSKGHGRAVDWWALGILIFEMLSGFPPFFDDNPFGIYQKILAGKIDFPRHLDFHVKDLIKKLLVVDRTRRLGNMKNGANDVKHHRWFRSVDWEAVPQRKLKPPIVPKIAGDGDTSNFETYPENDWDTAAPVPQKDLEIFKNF

[11] = target: Platelet-derived growth factor receptor beta (Homo sapiens, UniProt P09619); conditions: at 10 µM
[12] = target: Ribosomal protein S6 kinase beta-1 (Homo sapiens, UniProt P23443); experiment: Selectivity interaction (ActivX KiNativ screen (ex vivo kinase selectivity in human PBMCs)) EUB0001619a RPS6KB1; type: cell-based; conditions: PBMC, at 1 µM
[13] = tested on: Epidermal growth factor receptor (Homo sapiens), P00533 [UNDEFINED MUTATION]; experiment: Selectivity interaction (KinomeScan (DiscoverX)) EUB0000655a EGFR; conditions: at 10 µM
[14] = target: LIM domain kinase 2 (Homo sapiens) (UniProt P53671); experiment: Selectivity interaction (KinomeScan (DiscoverX)) EUB0000655a LIMK2; conditions: at 10 µM
[15] = target: T3, Eukaryotic translation initiation factor 2-alpha kinase 3 (Homo sapiens) (UniProt Q9NZJ5); experiment: Selectivity interaction (ProQinase) EUB0000171b EIF2AK3
T3 sequence (whole entry): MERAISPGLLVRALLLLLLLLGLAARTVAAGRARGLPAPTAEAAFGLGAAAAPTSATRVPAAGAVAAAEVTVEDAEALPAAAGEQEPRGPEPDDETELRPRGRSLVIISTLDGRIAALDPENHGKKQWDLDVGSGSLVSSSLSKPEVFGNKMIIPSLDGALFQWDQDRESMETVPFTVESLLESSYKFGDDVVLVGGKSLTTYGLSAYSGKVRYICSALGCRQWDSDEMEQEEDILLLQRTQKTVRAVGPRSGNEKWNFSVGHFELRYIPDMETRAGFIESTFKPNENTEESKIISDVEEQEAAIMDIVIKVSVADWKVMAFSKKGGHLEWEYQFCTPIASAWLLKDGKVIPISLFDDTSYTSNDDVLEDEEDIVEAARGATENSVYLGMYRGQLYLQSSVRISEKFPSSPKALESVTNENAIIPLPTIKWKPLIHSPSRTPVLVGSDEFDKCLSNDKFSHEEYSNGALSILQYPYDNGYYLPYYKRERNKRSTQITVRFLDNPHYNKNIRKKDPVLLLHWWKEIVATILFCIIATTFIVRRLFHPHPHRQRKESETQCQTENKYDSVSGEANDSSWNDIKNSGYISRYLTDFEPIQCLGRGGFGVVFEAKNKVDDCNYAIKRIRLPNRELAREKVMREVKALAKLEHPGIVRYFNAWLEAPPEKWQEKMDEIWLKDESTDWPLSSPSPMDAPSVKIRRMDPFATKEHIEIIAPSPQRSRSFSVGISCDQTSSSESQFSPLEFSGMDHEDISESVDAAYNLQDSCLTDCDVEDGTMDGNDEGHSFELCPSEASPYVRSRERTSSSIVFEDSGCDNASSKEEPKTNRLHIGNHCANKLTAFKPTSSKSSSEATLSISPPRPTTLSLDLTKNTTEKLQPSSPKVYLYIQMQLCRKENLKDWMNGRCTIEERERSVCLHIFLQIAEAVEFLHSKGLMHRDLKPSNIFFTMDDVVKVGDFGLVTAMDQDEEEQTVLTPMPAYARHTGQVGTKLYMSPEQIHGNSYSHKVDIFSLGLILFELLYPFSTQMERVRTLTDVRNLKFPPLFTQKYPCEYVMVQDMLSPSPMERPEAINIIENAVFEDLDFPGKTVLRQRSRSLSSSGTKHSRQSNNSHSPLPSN

Chain of SWI/SNF-related matrix-associated actin-dependent regulator of chromatin subfamily A member 2 (P51531 whole entry): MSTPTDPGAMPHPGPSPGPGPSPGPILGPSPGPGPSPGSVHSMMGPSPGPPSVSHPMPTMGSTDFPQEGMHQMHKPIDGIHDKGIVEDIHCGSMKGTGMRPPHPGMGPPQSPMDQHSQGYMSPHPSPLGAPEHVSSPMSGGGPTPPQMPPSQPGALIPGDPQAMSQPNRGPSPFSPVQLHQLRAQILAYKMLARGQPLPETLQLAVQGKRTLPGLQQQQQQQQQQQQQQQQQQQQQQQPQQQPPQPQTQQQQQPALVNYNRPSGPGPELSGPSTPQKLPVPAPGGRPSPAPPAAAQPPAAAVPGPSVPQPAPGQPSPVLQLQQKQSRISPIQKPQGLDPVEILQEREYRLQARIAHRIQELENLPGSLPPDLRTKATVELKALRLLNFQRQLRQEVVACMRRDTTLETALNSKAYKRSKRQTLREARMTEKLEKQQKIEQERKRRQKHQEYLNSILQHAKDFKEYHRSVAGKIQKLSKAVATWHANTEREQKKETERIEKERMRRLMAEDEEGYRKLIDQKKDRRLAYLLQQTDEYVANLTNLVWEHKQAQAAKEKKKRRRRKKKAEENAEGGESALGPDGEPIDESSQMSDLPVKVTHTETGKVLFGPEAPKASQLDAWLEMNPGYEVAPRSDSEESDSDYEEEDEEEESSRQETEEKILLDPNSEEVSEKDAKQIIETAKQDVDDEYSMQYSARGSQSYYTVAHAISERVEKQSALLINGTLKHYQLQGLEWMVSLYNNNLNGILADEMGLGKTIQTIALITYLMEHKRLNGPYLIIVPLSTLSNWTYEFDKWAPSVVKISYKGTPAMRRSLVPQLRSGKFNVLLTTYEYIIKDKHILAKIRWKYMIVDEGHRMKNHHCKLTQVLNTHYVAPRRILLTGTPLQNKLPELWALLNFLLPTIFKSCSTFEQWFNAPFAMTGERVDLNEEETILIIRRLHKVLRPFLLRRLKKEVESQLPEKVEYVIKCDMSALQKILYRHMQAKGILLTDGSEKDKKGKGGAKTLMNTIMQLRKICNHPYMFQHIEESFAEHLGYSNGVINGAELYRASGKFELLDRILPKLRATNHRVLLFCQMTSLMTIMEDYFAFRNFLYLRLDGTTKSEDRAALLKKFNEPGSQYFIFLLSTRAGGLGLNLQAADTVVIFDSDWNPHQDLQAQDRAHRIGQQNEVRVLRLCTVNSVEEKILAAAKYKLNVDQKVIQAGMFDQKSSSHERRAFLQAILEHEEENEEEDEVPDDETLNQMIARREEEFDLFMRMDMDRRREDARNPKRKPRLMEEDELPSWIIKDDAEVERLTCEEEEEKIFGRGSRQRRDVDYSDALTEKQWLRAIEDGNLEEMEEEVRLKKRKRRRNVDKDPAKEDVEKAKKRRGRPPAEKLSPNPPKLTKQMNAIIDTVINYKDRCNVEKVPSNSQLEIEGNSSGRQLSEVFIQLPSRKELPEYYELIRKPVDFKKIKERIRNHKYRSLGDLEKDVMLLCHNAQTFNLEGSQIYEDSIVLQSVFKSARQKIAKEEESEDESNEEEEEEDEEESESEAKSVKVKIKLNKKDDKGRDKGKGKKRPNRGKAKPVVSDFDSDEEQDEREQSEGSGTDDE
Chain of Fibroblast growth factor receptor 1 (P11362 22-822 limits assumed): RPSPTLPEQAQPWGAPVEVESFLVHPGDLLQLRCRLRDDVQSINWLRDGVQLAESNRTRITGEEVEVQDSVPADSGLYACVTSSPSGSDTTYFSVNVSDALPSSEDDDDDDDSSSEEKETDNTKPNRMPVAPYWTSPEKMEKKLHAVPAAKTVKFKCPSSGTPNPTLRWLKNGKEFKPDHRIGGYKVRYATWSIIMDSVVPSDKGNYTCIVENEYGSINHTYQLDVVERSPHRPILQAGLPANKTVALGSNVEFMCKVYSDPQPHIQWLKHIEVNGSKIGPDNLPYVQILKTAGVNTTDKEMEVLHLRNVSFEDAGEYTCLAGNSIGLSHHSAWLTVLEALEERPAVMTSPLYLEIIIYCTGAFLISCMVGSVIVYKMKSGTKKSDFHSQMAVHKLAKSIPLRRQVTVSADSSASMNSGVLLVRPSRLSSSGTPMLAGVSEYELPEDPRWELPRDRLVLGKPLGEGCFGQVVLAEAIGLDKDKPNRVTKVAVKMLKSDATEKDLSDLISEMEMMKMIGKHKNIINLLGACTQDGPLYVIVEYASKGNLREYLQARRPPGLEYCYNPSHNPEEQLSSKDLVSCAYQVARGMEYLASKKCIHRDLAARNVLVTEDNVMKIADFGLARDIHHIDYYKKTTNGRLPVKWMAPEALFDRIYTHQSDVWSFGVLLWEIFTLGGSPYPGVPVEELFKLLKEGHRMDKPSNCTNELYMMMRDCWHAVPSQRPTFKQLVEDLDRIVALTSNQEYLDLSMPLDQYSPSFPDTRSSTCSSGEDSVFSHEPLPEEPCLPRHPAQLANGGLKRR
Chain of Ribosomal protein S6 kinase beta-1 (P23443 whole entry, looked up): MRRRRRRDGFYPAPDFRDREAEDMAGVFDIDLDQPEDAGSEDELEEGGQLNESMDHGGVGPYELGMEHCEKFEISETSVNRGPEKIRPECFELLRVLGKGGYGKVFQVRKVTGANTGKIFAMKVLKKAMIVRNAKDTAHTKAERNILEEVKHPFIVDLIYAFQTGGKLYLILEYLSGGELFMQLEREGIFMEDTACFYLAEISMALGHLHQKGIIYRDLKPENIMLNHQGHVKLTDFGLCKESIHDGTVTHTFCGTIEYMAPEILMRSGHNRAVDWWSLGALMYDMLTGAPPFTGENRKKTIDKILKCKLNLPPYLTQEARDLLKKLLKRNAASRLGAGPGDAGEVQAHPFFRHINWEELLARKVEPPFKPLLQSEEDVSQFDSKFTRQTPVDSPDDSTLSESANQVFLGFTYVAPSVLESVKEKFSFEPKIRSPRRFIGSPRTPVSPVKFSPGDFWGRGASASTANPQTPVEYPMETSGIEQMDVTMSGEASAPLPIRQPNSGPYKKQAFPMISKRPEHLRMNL
Chain of Platelet-derived growth factor receptor beta (P09619 whole entry): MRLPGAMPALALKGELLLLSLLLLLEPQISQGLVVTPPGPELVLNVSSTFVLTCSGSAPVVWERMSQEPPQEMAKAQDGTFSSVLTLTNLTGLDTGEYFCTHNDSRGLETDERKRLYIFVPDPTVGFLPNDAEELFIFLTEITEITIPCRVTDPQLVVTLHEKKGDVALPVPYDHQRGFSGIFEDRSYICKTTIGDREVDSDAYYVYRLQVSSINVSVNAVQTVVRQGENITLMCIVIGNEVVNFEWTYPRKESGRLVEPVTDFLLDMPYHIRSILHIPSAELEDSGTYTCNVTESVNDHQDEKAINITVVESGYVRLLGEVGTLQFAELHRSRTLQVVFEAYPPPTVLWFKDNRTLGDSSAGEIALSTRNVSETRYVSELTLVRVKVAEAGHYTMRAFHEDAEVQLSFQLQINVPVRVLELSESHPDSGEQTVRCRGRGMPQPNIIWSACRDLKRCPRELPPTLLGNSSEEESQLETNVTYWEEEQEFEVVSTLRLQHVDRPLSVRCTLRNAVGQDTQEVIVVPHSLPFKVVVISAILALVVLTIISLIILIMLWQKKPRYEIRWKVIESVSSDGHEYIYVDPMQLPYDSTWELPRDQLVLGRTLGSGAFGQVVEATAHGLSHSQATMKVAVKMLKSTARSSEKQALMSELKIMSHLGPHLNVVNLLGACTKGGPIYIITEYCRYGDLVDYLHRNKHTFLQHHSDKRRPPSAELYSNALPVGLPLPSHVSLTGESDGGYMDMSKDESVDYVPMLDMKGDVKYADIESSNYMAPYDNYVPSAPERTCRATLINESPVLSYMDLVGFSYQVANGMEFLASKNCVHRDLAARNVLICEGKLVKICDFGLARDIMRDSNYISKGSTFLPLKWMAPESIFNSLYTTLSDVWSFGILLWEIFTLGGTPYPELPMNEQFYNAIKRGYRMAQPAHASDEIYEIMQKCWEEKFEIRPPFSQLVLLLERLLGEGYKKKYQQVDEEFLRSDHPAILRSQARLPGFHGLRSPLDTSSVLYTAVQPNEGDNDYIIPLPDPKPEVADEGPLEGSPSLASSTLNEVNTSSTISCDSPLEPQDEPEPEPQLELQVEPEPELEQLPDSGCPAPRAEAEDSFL
Chain of Serine/threonine-protein kinase PAK 2 (Homo sapiens) (Q13177 whole entry): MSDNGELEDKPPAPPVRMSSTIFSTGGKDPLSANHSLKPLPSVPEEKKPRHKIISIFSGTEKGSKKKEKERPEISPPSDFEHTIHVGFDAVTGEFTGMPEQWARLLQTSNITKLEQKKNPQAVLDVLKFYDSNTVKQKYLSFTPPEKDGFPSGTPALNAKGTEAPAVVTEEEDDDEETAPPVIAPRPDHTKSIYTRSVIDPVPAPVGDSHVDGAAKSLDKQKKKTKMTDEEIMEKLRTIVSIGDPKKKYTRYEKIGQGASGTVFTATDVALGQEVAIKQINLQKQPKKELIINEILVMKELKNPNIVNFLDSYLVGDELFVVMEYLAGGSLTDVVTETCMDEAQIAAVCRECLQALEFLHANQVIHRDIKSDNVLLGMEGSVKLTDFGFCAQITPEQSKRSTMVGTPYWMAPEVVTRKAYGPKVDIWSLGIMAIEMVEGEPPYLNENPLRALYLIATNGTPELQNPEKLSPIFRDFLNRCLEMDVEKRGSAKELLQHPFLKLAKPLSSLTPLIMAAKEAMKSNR
Chain of Serine/threonine-protein kinase RIO2 (Homo sapiens) (Q9BVS4 whole entry, looked up): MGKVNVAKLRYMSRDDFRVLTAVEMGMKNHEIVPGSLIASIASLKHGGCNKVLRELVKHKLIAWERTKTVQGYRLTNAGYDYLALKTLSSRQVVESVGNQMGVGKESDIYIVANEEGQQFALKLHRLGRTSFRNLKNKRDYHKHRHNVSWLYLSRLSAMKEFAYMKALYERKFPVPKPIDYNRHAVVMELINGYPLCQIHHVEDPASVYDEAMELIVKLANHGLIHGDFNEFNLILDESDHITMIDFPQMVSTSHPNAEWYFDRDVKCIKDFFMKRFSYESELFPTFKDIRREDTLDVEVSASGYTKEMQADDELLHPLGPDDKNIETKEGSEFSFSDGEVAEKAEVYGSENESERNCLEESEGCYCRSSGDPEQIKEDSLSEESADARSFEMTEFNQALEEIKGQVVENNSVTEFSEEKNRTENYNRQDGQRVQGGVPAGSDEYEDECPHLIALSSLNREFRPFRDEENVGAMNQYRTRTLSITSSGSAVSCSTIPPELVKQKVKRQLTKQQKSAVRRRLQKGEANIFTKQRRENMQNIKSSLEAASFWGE

CN1Cc2nccc(-c3cn(C)nc3-c3ccc(F)cc3)c2C1=O
% of inhibition [1]: 94%

COc1cc(N(C)c2ccnc3ccc(C(F)(F)F)cc23)cc(OC)c1OC
% binding [2]: 90%
% binding [3]: 44%
% binding [4]: 85%

CN(C)CCCOc1ccc(-c2cc(NCCCn3cccn3)nc(S(C)(=O)=O)n2)cc1
dTM [5]: < 2 K

CC[C@@H](Nc1c(C#N)c(-c2ccc(-c3cccc(C)c3F)cc2)nc2cnccc12)C(=O)O [BAY-091]
% of inhibition [6]: 24.9%

CN(C(=O)c1cnn2cccnc12)c1cc2c(cc1N1CCOCC1)C(=O)N(C[C@@H](F)C(C)(C)O)C2
dTM [7]: 0.6 K

CCC(=O)N1CCN(c2ccc(-n3c(=O)ccc4cnc5ccc(-c6cnc7ccccc7c6)cc5c43)cc2C(F)(F)F)CC1
% of control [8]: 96%

C=CC(=O)Nc1cc(-n2c(=O)ccc3cnc4ccc(-c5ccc(NS(C)(=O)=O)cc5)cc4c32)ccc1C
% of control ([9]; at 1 µM): 68%
% of control ([9]; at 10 µM): 100%

O[C@H]1CC[C@H](Nc2ncc3nc(Nc4c(F)cc(F)cc4F)n([C@H]4CCOC4)c3n2)CC1
% of control [10]: 100%

Cc1cc([C@@H](C)Nc2ccccc2C(=O)O)c2nc(N3CCOCC3)cc(=O)n2c1 [AZD-6482]
% of control [11]: 100%

N#Cc1cccc(-c2c[nH]c3ncnc(N4CCOCC4)c23)c1
% of inhibition [12]: -10%

CN(C)CCOc1ccc(-c2nc(-c3ccncc3)c(-c3ccc4c(c3)CC/C4=N\O)[nH]2)cc1
% of control [13]: 67%
% of control [14]: 79%

C=CC(=O)Nc1cccc(C(=O)Nc2ccc(Nc3cc(-c4[nH]c(SC)nc4C)ccn3)cc2)c1
% of control ([15]; at 1 µM): 92%
% of control ([15]; at 5 µM): 97%
